Source: patent US10517862B2, “Fused heterocyclic compound derivative and application thereof” (NHWA PHARMA. CORPORATION, priority 2015, dated 2019)
Read-outs that look alike come from different tables or passages of the source.

What was measured:
[1] = system: mice of Kunming breed; assay: MK-801 induced high activity in mice; assay type: in vivo; conditions: Mus musculus, 1.5 h, po, MK-801 0.1 mg/kg ip, spontaneous activities in 90 min
Description: Example 54: MK-801 Induced High Activity—the In Vivo Anti-Schizophrenia Activity of the Compounds
Healthy mice of Kunming breed (with half male and half female, (20±2) g) were provided by Qinglongshan Animal Cultivation Center, Nanjing.
Ascorbic acid was provided by Sinopharm Chemical Reagent Co. Ltd.
MK-801 was produced by Sigma Company, USA; the formulation method: 0.1% vitamin C was used to formulate a 1 mg/ml solution.
Test positive drugs: haloperidol, clozapine, risperidone, olanzapine, aripiprazole, ziprasidone, quetiapine.
Tween 80, with the concentration of 10%.
Mice with qualified body weight were selected, and randomly divided into blank group, model group, positive control group (risperidone group) and drug group. […] 1 h after the administration, 0.1% concentration of ascorbic acid was intraperitoneally injected to the blank group at 0.1 ml/10 g; and the model group, the positive control group (30 min) and the drug group were intraperitoneally injected the MK-801 solution at 0.1 mg/kg. Subsequently, the spontaneous activities of the mice of each group in 90 min were measured.

[2] = system: mice of Kunming breed; assay: Apomorphine induced clambering assay of mice; assay type: in vivo; conditions: for ED50: Mus musculus, read-out: Apomorphine induced clambering (ED50, po, mg/kg)
Description: Healthy mice of Kunming breed (KM) (male, with body weight of 18-22 g) were provided by Qinglongshan Animal Cultivation Center, Nanjing.
Apomorphine provided by Sigma Company was dissolved in 0.9% NaCl (containing 0.1% vitamin C) before use, and was freshly formulated before use.
Vitamin C, F20061113, was provided by Sinopharm Chemical Reagent Co. Ltd.
Sodium chloride injection, H32026305, was provided by Xuzhou No. 5 Pharmaceutical Factory Co. Ltd.
Instruments: self-made clambering cage, chronograph.
Procedures: apomorphine induced clambering assay of mice
After 5 min of adaptation, the behavior of the mice at 10-11, 20-21, and 30-31 min after the injection of apomorphine were observed and scored. Scoring criteria: the behavior of 4 paws on the floor was scored as 0; the behavior of 2 forepaws on the cage was scored as 1; and the behavior of 4 paws on the cage was scored as 2.

[3] = in vivo; conditions: both sexes, mouse, in vivo, po
[4] = target: T1, D3 receptor (Homo sapiens, UniProt P35462); assay: D3 receptor assay ([3H]-Spiperone, HEK-293 cells); assay type: binding; conditions: for inhibition at 10 µM: test compound final concentration 10 μmol/L, [3H]-Spiperone, HEK-293 cells, read-out: D3 Inhibition rate (%); for affinity with D3 (in words): summary of in vitro assay
T1 construct: expressed in transfected cells; host or cells: HEK-293
Description: Then the cells were centrifuged at 1000 rpm for 5 min, the supernatant was discarded, and the cell pellets was collected and stored in a −20° C. fridge for reservation. It was re-suspended with Tris-Cl (pH 7.4) when the assay was performed.
Tris was divided into aliquots by Genetimes Technology Inc.
Competitive binding test for receptors: 20 μl of each of the test compounds and 20 μl of the radioactive ligand together with 160 μl of the receptor proteins were added into the reaction tubes, and the final concentrations of the test compound and the positive drug were all 10 μmol/L. After 50 min of incubation in 30° C. water bath, the tubes were immediately moved to ice bath to terminate the reactions. GF/C glass fiber filter papers were used for rapid sucking filtration on a Millipore cell sample collector, 3 ml of elution buffer (50 mM Tris-HCl, PH 7.4) was applied for 3 times, and microwave was applied for 4-5 min for drying. The filter paper was moved into 0.5 ml centrifuge tube, and 500 μl of liposoluble scintillation cocktail was added. The tubes were allowed to stand still for over 30 min in dark, and the intensities of radioactivity were measured by a counter.

[5] = target: 5HT2A receptor (Rattus norvegicus, UniProt P14842); assay: 5HT2A receptor binding assay ([3H]-Ketanserin, rat striatum membrane); conditions: for inhibition at 10 µM: read-out: 5HT2A Inhibition rate (%); for affinity with 5HT2A (in words): summary of in vitro assay
[6] = Catalepsy assay in mice; conditions: both sexes, Kunming, mouse, in vivo, po, bar test at 30, 60, 90 min
Description: Healthy mice of Kunming breed (with half male and half female, (22±2) g) were provided by Qinglongshan Animal Cultivation Center, Nanjing.
Instruments: self-made bar-grabbing apparatus: stainless steel bar in mice box, which was 0.3 cm in diameter and […].
Corresponding solvent double-distilled water was administered intragastrically to the negative control group and the model group, corresponding positive drugs were administered intragastrically to the positive drug groups (a small amount of acetic acid was first added and then double-distilled water was added when dissolving), and corresponding dosages of compounds were administered intragastrically to the compound groups for each dosage, with the volume for intragastric administration as 0.1 ml/10 g. At 30 min, 60 min, 90 min after the intragastric administration, the two forepaws of the mice were gently placed on the bars (which were 20 cm in length, 0.3 cm in diameter, and 5.5 cm above the bench), and the hindpaws of the animals were placed on the bottom of the box. The durations of the mice to maintain the posture with the two forepaws on the bars were recorded, and 30 s of spasticity without moving was considered as the positive response. In the case the forepaws of the mice were not put down persistently, the observation was terminated at 60 s. The numbers of animals with positive response in each of the compound dosage groups were counted.

[7] = system: D2 receptor; assay: D2 receptor binding assay (3H-Spiperone, rat striatum membrane); conditions: for D2 Inhibition rate (%): test compound final concentration 10^−5 M, 3H-Spiperone, rat striatum membrane; for affinity with D2 (in words): summary of in vitro assay
Description: Preparation of D2 Membrane
Rats were decapitated on ice. […] The weight of the homogenized tubes were adjusted using a balance, and centrifugation was conducted. […] Centrifugation was conducted.
(§1) Materials for the Receptor Binding Assay

[8] = target: T2, 5HT2C receptor (Rattus norvegicus, UniProt P08909); assay: 5HT2C receptor binding assay ([3H]-mesulergine, rat striatum membrane); conditions: for inhibition at 10 µM: test compound final concentration 10^−5 M, [3H]-mesulergine, rat striatum membrane, read-out: 5HT2C Inhibition rate (%); for affinity with 5HT2C (in words): summary of in vitro assay
T2 construct: from tissue; host or cells: rat brain striatum
T2 sequence (P08909 33-460): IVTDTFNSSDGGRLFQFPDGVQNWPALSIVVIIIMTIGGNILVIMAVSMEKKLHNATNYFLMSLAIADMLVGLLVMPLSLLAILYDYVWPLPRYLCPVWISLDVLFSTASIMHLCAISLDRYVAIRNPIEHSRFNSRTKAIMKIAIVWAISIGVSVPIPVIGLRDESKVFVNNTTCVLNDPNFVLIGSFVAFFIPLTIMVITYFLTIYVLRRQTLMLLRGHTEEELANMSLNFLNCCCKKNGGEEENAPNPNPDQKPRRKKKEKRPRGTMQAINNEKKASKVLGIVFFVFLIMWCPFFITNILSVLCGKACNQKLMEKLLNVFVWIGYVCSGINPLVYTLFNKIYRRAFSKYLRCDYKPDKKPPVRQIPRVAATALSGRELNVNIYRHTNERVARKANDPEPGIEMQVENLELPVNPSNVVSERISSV
Description: Preparation of 5HT2C Membrane
Rats were decapitated on ice. […] Centrifugation was conducted.
as §1

[9] = target: Histamine H1 receptor (Rattus norvegicus, UniProt P31390); assay: Histamine H1 receptor binding assay (3H-pyrilamine, rat cerebellum membrane); conditions: for inhibition at 10 µM: read-out: H1 Inhibition rate (%); for affinity with H1 (in words): summary of in vitro assay
Description: The supernatant was discarded to give pellets, and homogenate F was added again to the pellets for washing. Centrifugation was conducted and repeated 3 times.
(2) 100 μL of membrane preparation was added into each reaction tube.

[10] = system: α1 norepinephrine receptor; assay: α1 norepinephrine receptor binding assay (3H-prazosin, rat cortex membrane); conditions: for α1 Inhibition rate (%): test compound final concentration 10^−5 M, 3H-prazosin, rat cortex membrane; for affinity with α1 (in words): summary of in vitro assay
From the text: Preparation of Receptor Membrane of Norepinephrine
α1 Norepinephrine Receptor Binding Assay

[11] = target: T3, 5HT1A receptor (Rattus norvegicus, UniProt P19327); assay: 5HT1A receptor binding assay (3H-8-OH-DPAT, rat striatum membrane); conditions: for inhibition at 10 µM: test compound final concentration 10^−5 M, 3H-8-OH-DPAT, rat striatum membrane, read-out: 5HT1A Inhibition rate (%); for affinity with 5HT1A (in words): summary of in vitro assay
T3 construct: Rats were decapitated on ice; from tissue; host or cells: rat brain striatum
T3 sequence (P19327 1-422): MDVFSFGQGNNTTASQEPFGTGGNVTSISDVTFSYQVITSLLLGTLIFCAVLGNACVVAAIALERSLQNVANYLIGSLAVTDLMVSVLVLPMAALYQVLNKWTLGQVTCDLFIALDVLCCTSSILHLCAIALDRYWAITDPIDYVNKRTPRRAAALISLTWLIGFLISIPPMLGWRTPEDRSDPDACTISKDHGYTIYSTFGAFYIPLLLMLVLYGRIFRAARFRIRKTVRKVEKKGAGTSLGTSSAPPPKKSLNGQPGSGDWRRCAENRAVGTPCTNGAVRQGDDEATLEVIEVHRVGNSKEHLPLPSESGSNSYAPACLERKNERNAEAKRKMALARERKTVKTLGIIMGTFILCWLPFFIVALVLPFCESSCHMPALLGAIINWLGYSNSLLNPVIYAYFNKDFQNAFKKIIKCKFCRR
Description: Preparation of 5HT1A Membrane
Rats were decapitated on ice. […] Incubation at 37° C. was conducted for 10 min. […] Centrifugation was conducted at 12000 rpm, 4° C. for 20 min. […] Centrifugation was conducted and repeated 3 times.
as §1

[12] = mice, po, apomorphine 1 mg/kg sc 1 hour after administration

T1 sequence (P35462 whole entry): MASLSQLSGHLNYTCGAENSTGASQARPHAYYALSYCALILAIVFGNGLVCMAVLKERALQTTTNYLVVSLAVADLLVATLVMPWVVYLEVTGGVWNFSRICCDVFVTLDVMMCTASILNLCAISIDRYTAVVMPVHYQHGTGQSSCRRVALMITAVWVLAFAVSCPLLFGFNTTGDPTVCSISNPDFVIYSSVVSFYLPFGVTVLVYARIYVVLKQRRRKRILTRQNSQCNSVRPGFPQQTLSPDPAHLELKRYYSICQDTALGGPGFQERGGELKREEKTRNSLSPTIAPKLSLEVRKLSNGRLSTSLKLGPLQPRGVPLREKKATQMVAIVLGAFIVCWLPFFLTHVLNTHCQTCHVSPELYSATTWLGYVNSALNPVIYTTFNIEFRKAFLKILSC
Sequence of 5HT2A receptor (P14842 whole entry): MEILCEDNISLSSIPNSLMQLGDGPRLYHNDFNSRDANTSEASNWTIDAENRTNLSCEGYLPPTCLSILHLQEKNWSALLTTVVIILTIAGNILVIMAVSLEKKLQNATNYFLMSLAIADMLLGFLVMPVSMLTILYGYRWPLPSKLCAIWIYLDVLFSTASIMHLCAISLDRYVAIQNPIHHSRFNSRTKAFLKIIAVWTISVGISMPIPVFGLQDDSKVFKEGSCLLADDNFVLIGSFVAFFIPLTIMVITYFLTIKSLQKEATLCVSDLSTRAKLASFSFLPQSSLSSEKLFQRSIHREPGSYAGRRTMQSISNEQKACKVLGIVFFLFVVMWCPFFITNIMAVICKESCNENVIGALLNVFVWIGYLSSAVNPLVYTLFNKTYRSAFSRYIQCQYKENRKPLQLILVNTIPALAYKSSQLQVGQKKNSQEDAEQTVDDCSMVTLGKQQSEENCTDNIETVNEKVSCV
Sequence of Histamine H1 receptor (P31390 whole entry): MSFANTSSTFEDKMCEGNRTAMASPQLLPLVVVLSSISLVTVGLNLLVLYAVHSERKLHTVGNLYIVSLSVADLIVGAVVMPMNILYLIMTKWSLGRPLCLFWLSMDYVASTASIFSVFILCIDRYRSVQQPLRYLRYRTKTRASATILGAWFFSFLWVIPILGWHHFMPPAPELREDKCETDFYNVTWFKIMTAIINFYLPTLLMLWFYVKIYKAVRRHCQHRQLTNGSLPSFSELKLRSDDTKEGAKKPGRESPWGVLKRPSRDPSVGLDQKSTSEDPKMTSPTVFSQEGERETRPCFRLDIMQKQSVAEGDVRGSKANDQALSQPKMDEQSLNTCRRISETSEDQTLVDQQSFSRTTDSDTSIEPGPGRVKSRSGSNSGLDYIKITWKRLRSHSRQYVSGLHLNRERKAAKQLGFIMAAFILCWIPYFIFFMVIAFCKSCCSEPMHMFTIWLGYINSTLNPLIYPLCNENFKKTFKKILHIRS

Row | SMILES | inhibition at 10 µM [4] [%] | inhibition at 10 µM [5] [%] | D2 Inhibition rate (%) [7] [%] | inhibition at 10 µM [8] [%] | inhibition at 10 µM [9] [%] | α1 Inhibition rate (%) [10] [%] | inhibition at 10 µM [11] [%] | further results
1 | O=C1Cc2cc(CCN3CCN(c4nsc5ccccc45)CC3)c(Cl)cc2N1 [ziprasidone] | – | – | – | – | – | – | – | ED50 [1]: 0.56 mg/kg; ED50 [2, 12]: 0.37 mg/kg; LD50 at 7 days ([3]; single intragastric administration in mice, read-out: LD50 (po, mg/kg)): > 2000 mg/kg
2 | Cc1nc2n(c(=O)c1CCN1CCC(c3noc4cc(F)ccc34)CC1)CCCC2 [risperidone] | – | – | – | – | – | – | – | ED50 ([2]; 1 h): 0.015 mg/kg; effect on apomorphine induced clambering symptoms (in words) ([2]; compared with the model group, mice): effectively improve
3 | O=C(CCCN1CCC(c2noc3cc(F)ccc23)CC1)c1cc2c3c(c1)CCN3C(=O)CC2 [Compound 15] | 99.9 | 104 | 103.83 | 52.7 | 34 | 43.69 | 103 | ED50 [1]: 0.21 mg/kg; ED50 [2, 12]: 0.12 mg/kg; ED50 [6]: 50 mg/kg; LD50 at 7 days ([3]; KM): > 2000 mg/kg
4 | O=C1CCc2cc(CCCN3CCC(c4noc5cc(F)ccc45)CC3)cc3c2N1CC3 [Compound 14] | 96.9 | 93.9 | 94.65 | 57 | 43.9 | 50.91 | 87 | affinity with D3 (in words) [4]: high affinities; affinity with 5HT2A (in words) [5]: high affinities; affinity with D2 (in words) [7]: high affinities; affinity with 5HT2C (in words) [8]: low affinities; affinity with H1 (in words) [9]: low affinities; affinity with α1 (in words) [10]: low affinities; affinity with 5HT1A (in words) [11]: high affinities
5 | O=C(CCCCN1CCC(c2noc3cc(F)ccc23)CC1)c1cc2c3c(c1)CCC(=O)N3CCC2 [Compound 8] | 72.4 | 93 | 90.17 | 59.5 | 45.5 | 41.19 | 89.5 | –
6 | CC1CC(=O)N2CCCc3cc(CCCCN4CCC(c5noc6cc(F)ccc56)CC4)cc1c32 (centres unmarked) [Compound 10] | 80.2 | 83.5 | 85.88 | 55.9 | 43.9 | 46.48 | 82.9 | –
7 | Cc1cc2c(s1)Nc1ccccc1N=C2N1CCN(C)CC1 [olanzapine] | – | – | – | – | – | – | – | ED50 ([2]; 1 h): 0.11 mg/kg
8 | O=C1CCc2cc(C(O)CCCN3CCC(c4noc5cc(F)ccc45)CC3)cc3c2N1CC3 (centres unmarked) [Compound 16] | 98.3 | 98.8 | 98.34 | 55.4 | 38.8 | 51.19 | 99.4 | affinity with D3 (in words) [4]: high affinities; affinity with 5HT2A (in words) [5]: high affinities; affinity with D2 (in words) [7]: high affinities; affinity with 5HT2C (in words) [8]: low affinities; affinity with H1 (in words) [9]: low affinities; affinity with α1 (in words) [10]: low affinities; affinity with 5HT1A (in words) [11]: high affinities
